Laboratory results: PubChem BioAssay AID493102 (Broad Institute, 2011)

Test system: SK-MEL-5 TRPM1-promoter luciferase reporter, 24 h
Assay: reducers of TRPM1 reporter luminescence, concentration series – cell-based, SK-MEL-5, cherry-picked, set 4, MITF inhibitor project, dose response (AID 493102);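 note: actives lower the luciferase signal so the potency reflects inhibition of reporter expression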

Compound: N#C/C(=C\c1ccc(OCc2ccc(C(=O)O)cc2)cc1)C(=O)N1CCOCC1
- AC50: 1.19 µM

Compound: CCN(CC)S(=O)(=O)c1cccc(C(=O)N/N=C(\C)c2ccc(O)cc2O)c1
- AC50: 3.74 µM

Compound: CCN(CC)c1ccc(/C=N/NC(=O)c2cccc(S(=O)(=O)N3CCOCC3)c2)c(O)c1
- AC50: 1.52 µM

Compound: CCCN(CC(=O)Nc1ccccc1C)C(=O)CCl
- AC50: 4.04 µM

Compound: COC(=O)c1ccc(Nc2cc(C)nc3ccc(C)cc23)cc1
- AC50: 6.85 µM

Compound: COc1cccc(/C=N/Nc2ccc(C(=O)O)cc2)c1O
- AC50: 0.333 µM

Compound: C=CCSC(=S)NC1CCS(=O)(=O)C1 (stereo unspecified)
- AC50: 20.7 µM

Compound: CC(=O)Nc1ccc(NC(=O)c2nc(S(=O)(=O)Cc3ccccc3)ncc2Cl)cc1
- AC50: 12.8 µM

Compound: Cc1ccn2c(Nc3ccccc3)c(-c3ccccn3)nc2c1
- AC50: 9.31 µM

Compound: COc1ccc(-c2cc(-c3ccccc3)c(C#N)c(S(C)=O)n2)cc1 (stereo unspecified)
- AC50: 11.8 µM

Compound: Cc1cc(C(=O)CSc2nnc3ccccn23)c(C)n1-c1ccccc1
- AC50: 2.08 µM

Compound: Cc1cc(C)cc(NS(=O)(=O)c2ccc3c(c2)c(=O)n(C)c(=O)n3C)c1
- AC50: 4.67 µM

Compound: O=C1NC(=O)N(CCc2ccc(F)cc2)C(=O)/C1=C\C=C\c1ccccc1
- AC50: 8.26 µM

Compound: CCn1c(/C=C/N(C)c2ccccc2)[n+](CC)c2ccc(Cl)cc21
- AC50: 6.86 µM

Compound: COC1=C(Nc2ccccc2)C(=O)c2ccccc2C1=O
- AC50: 4.53 µM

Compound: Cc1cc(Br)ccc1NC(=O)CNC(=O)Cn1ncc(Cl)c(Cl)c1=O
- AC50: 7.47 µM

Compound: O=C(NC1=NCCS1)C1COc2ccccc2O1 (stereo unspecified)
- AC50: 1.7 µM

Compound: N#C/C(=C(/O)c1ccc([N+](=O)[O-])o1)c1nc2ccccc2[nH]1
- AC50: 3.8 µM

Compound: Nc1ccc(Oc2cccc(Oc3ccc(N)cc3)c2)cc1
- AC50: 1.1 µM

Compound: O=C(Nc1cc(-c2nc3ncccc3o2)ccc1Cl)c1ccc([N+](=O)[O-])o1
- AC50: 5.76 µM

Compound: CCOC(=O)COc1ccc2ccccc2c1/C=C/[N+](=O)[O-]
- AC50: 8.17 µM

Compound: Cc1ccc(C(=O)N/C(=C\c2ccc(-c3ccccc3[N+](=O)[O-])o2)C(=O)NCCCN(C)C)cc1
- AC50: 3.28 µM

Compound: CC1CCN(Cc2nc(-c3ccc(Cl)cc3)no2)CC1
- AC50: 7.62 µM

Compound: COc1ccc2[nH]cc(C(=O)CCl)c2c1
- AC50: 5.65 µM

Compound: CC(C)C(=O)NC(c1ccco1)c1ccc2cccnc2c1O (stereo unspecified)
- AC50: 8.18 µM

Compound: COc1ccc(S(=O)(=O)Nc2ccc(O)c3ccccc23)cc1
- AC50: 9.07 µM

Compound: CNC(=O)COC(=O)c1ccccc1C(=O)c1ccc(Cl)c([N+](=O)[O-])c1
- AC50: 9.77 µM

Compound: O=C1CCC2S/C(=C/Nc3ccc(C(F)(F)F)cc3)C(=O)N12 (stereo unspecified)
- AC50: 3.57 µM

Compound: O=c1c2ccccc2nc(/C=C/c2ccc([N+](=O)[O-])o2)n1-c1ccc(O)cc1
- AC50: 4.45 µM

Compound: N/C(=N\OC(=O)c1ccccc1)c1ccccn1
- AC50: 11.9 µM

Compound: CN(C)CCNc1ccc2nnn3c4ccc(O)cc4c(=O)c1c23
- AC50: 4.73 µM

Compound: Cc1cc(NC(=O)c2cncc(Br)c2)ccc1NC(=O)c1cc2ccccc2o1
- AC50: 10.4 µM

Compound: O=C(Nc1ccc2oc(-c3cccnc3)nc2c1)c1ccc([N+](=O)[O-])o1
- AC50: 14.2 µM

Compound: O=[N+]([O-])c1ccc(/C=N/n2c(CO)nc3ccccc32)s1
- AC50: 1.98 µM

Compound: CN(C)c1nc(C=C(C#N)C#N)c(Cl)n1-c1ccc(F)cc1
- AC50: 3.92 µM

Compound: Cc1ccc(-n2nnnc2CNC(=O)c2ccc([N+](=O)[O-])o2)cc1C
- AC50: 9.72 µM

Compound: Nc1nc2n[nH]nc2c(=O)[nH]1
- AC50: 0.875 µM

Compound: Cc1ccc(NC(=O)CCC(=O)N/N=C/c2ccc([N+](=O)[O-])o2)cc1C
- AC50: 6.25 µM

Compound: CN1CCN(c2ccc(NC(=S)NC(=O)c3cccc4ccccc34)cc2)CC1
- AC50: 9 µM

Compound: C=CCN1C(=O)/C(=C/c2cc(C)n(-c3cccnc3)c2C)C(=O)NC1=S
- AC50: 16.8 µM

Compound: OCCNc1c2ccccc2nc2ccccc12
- AC50: 7.28 µM

Compound: O=C(c1ccccc1)c1cc(Cl)ccc1N1C(=O)C=CC1=O
- AC50: 11.9 µM

Compound: CC(C)c1ccc(/C=C2\SC(=S)N(CCC(=O)N3CCCCC3CCO)C2=O)cc1 (stereo unspecified)
- AC50: 7.43 µM

Compound: CC1=NC(=O)C(N=Nc2cccc(C(=O)O)c2)N1c1ccccc1 (stereo unspecified)
- AC50: 8.62 µM

Compound: COC(=O)c1ccc(/C=C(\C#N)C(=O)NC(C)c2ccccc2)cc1 (stereo unspecified)
- AC50: 10.7 µM

Compound: COc1cc2c(cc1OC)C(C)N(S(=O)(=O)c1cnc(Cl)c(Cl)c1)CC2 (stereo unspecified)
- AC50: 12.1 µM

Compound: Cc1c(C#N)c(NC(=O)CCl)n(Cc2cccs2)c1C
- AC50: 7.06 µM

Compound: Cn1nnnc1Sc1ncnc2scc(-c3ccc(F)cc3)c12
- AC50: 8.1 µM

Compound: BrC(=C\c1ccccc1)/C=N/n1cnnc1
- AC50: 7.26 µM

Compound: COc1ccccc1NS(=O)(=O)c1cc(NC(=O)c2ccc(Cl)nc2)ccc1Cl
- AC50: 11.3 µM

Compound: O=C1NC(=O)N(Cc2ccc(F)cc2)C(=O)/C1=C\C=C\c1ccco1
- AC50: 6.63 µM

Compound: N#Cc1c(NC(=O)CSc2ncn[nH]2)sc2c1CCCC2
- AC50: 0.599 µM

Compound: Cc1ccc(C2CC(C(F)(F)F)n3nc(C(=O)NCc4c(C)nn(C)c4C)c(Cl)c3N2)cc1 (stereo unspecified)
- AC50: 8.89 µM

Compound: CC(=O)N(C1CC(C)C(C#N)(C#N)C1(C#N)C#N)N(C)C (stereo unspecified)
- AC50: 9.24 µM

Compound: C=C1C(=O)C=C[C@]2(C)C[C@@H]3OC(=O)[C@](C)(O)[C@H]3C[C@@H]12
- AC50: 10.3 µM

Compound: O=C(Nc1ccc(N2CCOCC2)cc1)c1cnsn1
- AC50: 3.05 µM

Compound: CC(C)(C)c1ccc(-c2noc(CCC(=O)NCC3CCCO3)n2)cc1 (stereo unspecified)
- AC50: 0.275 µM

Compound: CCOc1ccc(-c2ccc(SC)nn2)cc1
- AC50: 5.17 µM

Compound: O=C1CN(C(=O)Cn2ncc(Cl)c(Cl)c2=O)c2ccccc2N1
- AC50: 8.67 µM

Compound: CCOc1ccc(-n2c(-c3ccc(Br)cc3)c[n+]3c2CCCCC3)cc1
- AC50: 3.87 µM

Compound: COc1ccccc1CNCC(O)Cn1c2ccccc2c2ccccc21 (stereo unspecified)
- AC50: 18.7 µM

Compound: COc1cccc2c1C(=O)C=C(C)C2=O
- AC50: 7.83 µM

Compound: O=C(Nc1ccc(N2CCN(C(=O)c3ccc(Cl)cc3)CC2)cc1)c1ccc([N+](=O)[O-])o1
- AC50: 7.32 µM

Compound: CCOC(=O)CSC1=NC(=O)/C(=C/c2ccc(OC)cc2)S1
- AC50: 3.98 µM

Compound: CC1=NNC(=O)/C1=C\c1cn(-c2ccccc2)nc1-c1ccc(F)cc1
- AC50: 6.52 µM

Compound: Cc1ccc(NC(=O)c2ccc([N+](=O)[O-])s2)cc1S(=O)(=O)N1CCOCC1
- AC50: 3.78 µM

Compound: O=C(Nc1nc(-c2ccccn2)cs1)c1ccc([N+](=O)[O-])o1
- AC50: 10.8 µM

Compound: CCN1CCN(c2ccc(S(=O)(=O)N3CCCCC3)cc2NC(=O)/C=C/c2ccc([N+](=O)[O-])cc2)CC1
- AC50: 7.51 µM

Compound: CCOc1ccc(-n2c(O)c(/C=N/Nc3nc(C)cc(C)n3)c3ccccc3c2=O)cc1
- AC50: 3.48 µM

Compound: Cc1ccc2nc3cc([N+](=O)[O-])cc([N+](=O)[O-])c3cc2c1
- AC50: 8.46 µM

Compound: CCOc1ccc(-n2c(-c3ccc(OC)cc3)c[n+]3c2CCCCC3)cc1
- AC50: 2.13 µM

Compound: COc1ccc(C)cc1Nc1nc(N)c2cc(OC)c(OC)cc2n1
- AC50: 14.2 µM

Compound: COc1cccc(NC(=O)c2cc3c(=O)n4ccccc4nc3n(CC(C)C)c2=N)c1
- AC50: 7.02 µM

Compound: O=C(NCc1ccco1)c1nc2c(nnn2Cc2ccccc2Cl)c(=O)[nH]1
- AC50: 14.4 µM

Compound: Nc1ccc(-c2ncc(-c3ccccc3)o2)cc1
- AC50: 0.171 µM

Compound: CC(=O)Oc1c(C(=O)c2nnc(C)o2)c(=O)n(Cc2ccccc2)c2ccccc12
- AC50: 6.98 µM

Compound: O=C1NC(=S)NC(=O)C1=Cc1cccn1-c1ccc(O)cc1
- AC50: 11.4 µM

Compound: CC1=CC2/C=C(\C)CCC(O)C(O)/C=C/C(=O)C23C(=O)NC(CC(C)C)C3C1C (stereo unspecified)
- AC50: 6.58 µM

Compound: CC(C)N1C(=O)/C(=C/C=C/c2ccco2)C(=O)N(Cc2ccco2)C1=O
- AC50: 9.97 µM

Compound: CCc1ccc(-c2cc(C(=O)Nn3cnnc3)c3ccccc3n2)cc1
- AC50: 12.5 µM

Compound: O=C(c1ccccc1)C(CN1CCCC1)c1ccccc1 (stereo unspecified)
- AC50: 5.33 µM

Compound: O=C(Nc1ccc2nc3n(c(=O)c2c1)CCCC3)c1cc([N+](=O)[O-])ccc1F
- AC50: 11.5 µM

Compound: CN(C)c1ccc(NC(=S)c2ccccn2)cc1
- AC50: 2.84 µM

Compound: CC(Oc1cccc(Br)c1)C(=O)NNC(=O)c1ccccn1 (stereo unspecified)
- AC50: 7.18 µM

Compound: Cc1ccccc1C(=O)N/N=C/c1ccc([N+](=O)[O-])s1
- AC50: 1.88 µM

Compound: O=c1c(Cl)c(Cl)cnn1-c1ccccc1
- AC50: 9.54 µM

Compound: CC(C)N=C(NS(=O)(=O)c1ccccc1)C(Cl)(Cl)Cl
- AC50: 6.76 µM

Compound: CN(C)c1cc[n+](CC(=O)c2ccc(-c3ccccc3)cc2)cc1
- AC50: 2.6 µM

Compound: O=C(/C=C/NNC(=O)c1ccccc1)c1ccc([N+](=O)[O-])cc1
- AC50: 9.19 µM

Compound: CCOc1ccc(NC(=O)c2ccccn2)cc1
- AC50: 4.4 µM

Compound: CCOC(=O)c1cc([N+](=O)[O-])c([N+](=O)[O-])cc1NC(C)=O
- AC50: 24.2 µM

Compound: CC1=C(CC(=O)c2ccccc2)C(=O)c2ccccc2C1=O
- AC50: 7.15 µM

Compound: O=[N+]([O-])c1ccc(/C=N/Nc2ccnc3cc(Cl)ccc23)o1
- AC50: 15.3 µM

Compound: O=C1c2cc(F)ccc2-n2c1nc1ccccc1c2=O
- AC50: 1.05 µM

Compound: COc1cccc(-c2csc3ncnc(Sc4nnnn4C)c23)c1
- AC50: 25 µM

Compound: Cc1cccc(/C=C2/Sc3ccc(C(=O)NCCN4CCCC4)cc3NC2=O)c1
- AC50: 18.4 µM

Compound: CC(C)(C)C(=O)Cn1ncc(Br)c(Br)c1=O
- AC50: 3.92 µM

Compound: CCCCn1c(=N)n(CCOc2ccc(C)cc2)c2ccccc21
- AC50: 11.3 µM

Compound: CC(C)(C)c1ccc(-c2cc(N)n[nH]2)cc1
- AC50: 0.511 µM

Compound: COc1ccc(C(C(=O)NC2CCCCC2)N(C(=O)CCl)c2ccc(OC)cc2)cc1 (stereo unspecified)
- AC50: 9.27 µM

Compound: O=C(NCC1CCCCC1)C1(CC2CC(c3cccc(Br)c3)=NO2)CCNCC1 (stereo unspecified)
- AC50: 18.1 µM

Compound: CCCCn1c(=N)n(CC(=O)c2ccc(Br)s2)c2ccccc21
- AC50: 7.45 µM

Compound: O=C(Nc1ccc(Cl)c(S(=O)(=O)N2CCOCC2)c1)c1ccc(OCC2CCCO2)cc1 (stereo unspecified)
- AC50: 3.26 µM

Compound: O=C1Nc2ccc(Br)cc2/C1=C/C(=O)c1ccc2c(c1)OCO2
- AC50: 25.5 µM

Compound: CC(C)(C)c1ccc(/C=N/Nc2ccc(C(=O)O)cc2)cc1
- AC50: 6.03 µM

Compound: O=C(CCl)Nc1cccc(S(=O)(=O)NC2=NCCCCC2)c1
- AC50: 7.85 µM

Compound: CCCCCn1c(=O)c(C(=O)Nc2cnccn2)c(O)c2ccccc21
- AC50: 5.93 µM

Compound: CC(=NNc1nc2ccccc2o1)c1cc2ccccc2cn1
- AC50: 0.175 µM

Compound: COc1ccc(-n2ncc3c(N4CCCCC4)ncnc32)cc1
- AC50: 1.48 µM

Compound: CC1CCCC(NC(=O)NC(=O)CCl)C1C (stereo unspecified)
- AC50: 12.4 µM

Compound: O=C(c1ccc([N+](=O)[O-])s1)N1CCN(c2ccccn2)CC1
- AC50: 12.2 µM

Compound: O=C(C#Cc1ccccc1)c1cccc([N+](=O)[O-])c1
- AC50: 3.62 µM

Compound: Cc1[nH]n(-c2ccccc2)c(=O)c1N=Nc1cccc(C(=O)O)c1
- AC50: 8.07 µM

Compound: CCOc1ccc(C(=O)Nc2cccc(C(=O)O)c2C)cc1Cl
- AC50: 8.56 µM

Compound: CCOC(=O)Cn1cc([N+](=O)[O-])nc1[N+](=O)[O-]
- AC50: 29.5 µM

Compound: O=C(CCCN1C(=O)S/C(=C\c2ccccc2)C1=O)NNC(=O)c1ccccc1O
- AC50: 33.9 µM
